Drawing on patent US9828393B2, “Silylalkyloxyaryl compounds and methods for treating cancer” (THE REGENTS OF THE UNIVERSITY OF COLORADO, a body corporate, priority 2013, dated 2017), this text covers GI50 for three compounds.

Holding throughout (format): cell-based, human
The test system of one experiment is SN12C. The experiment is described as follows: NCI-60 cell line screen (SRB), SN12C. As to the method: (§1) Drug sensitivity data are provided as GI50s (concentrations required to inhibit growth by 50%). The first row of the text file identifies cell lines, separated by tabs. Subsequent rows contain compound number, compound name, and GI50 for each cell line, each separated by a tab. […] For a typical screening experiment, cells are inoculated into 96 well microtiter plates in 100 μL at plating densities ranging from 5,000 to 40,000 cells/well depending on the doubling time of individual cell lines. After cell inoculation, the microtiter plates are incubated at 37° C., 5% CO2, 95% air and 100% relative humidity for 24 h prior to addition of experimental drugs. After 24 h, two plates of each cell line are fixed in situ with TCA, to represent a measurement of the cell population for each cell line at the time of drug addition (Tz). Experimental drugs are solubilized in dimethyl sulfoxide at 400-fold the desired final maximum test concentration and stored frozen prior to use. At the time of drug addition, an aliquot of frozen concentrate is thawed and diluted to twice the desired final maximum test concentration with complete medium containing 50 μg/ml gentamicin. Additional four, 10-fold or one-half log serial dilutions are made to provide a total of five drug concentrations plus control. Aliquots of 100 μl of these different drug dilutions are added to the appropriate microtiter wells already containing 100 μl of medium, resulting in the required final drug concentrations. Following drug addition, the plates are incubated for an additional 48 h at 37° C., 5% CO2, 95% air, and 100% relative humidity. For adherent cells, the assay is terminated by the addition of cold TCA. Cells are fixed in situ by the gentle addition of 50 μl of cold 50% (w/v) TCA (final concentration, 10% TCA) and incubated for 60 minutes at 4° C. The supernatant is discarded, and the plates are washed five times with tap water and air dried. Sulforhodamine B (SRB) solution (100 μl) at 0.4% (w/v) in 1% acetic acid is added to each well, and plates are incubated for 10 minutes at room temperature. After staining, unbound dye is removed by washing five times with 1% acetic acid and the plates are air dried. Bound stain is subsequently solubilized with 10 mM trizma base, and the absorbance is read on an automated plate reader at a wavelength of 515 nm. For suspension cells, the methodology is the same except that the assay is terminated by fixing settled cells at the bottom of the wells by gently adding 50 μl of 80% TCA (final concentration, 16% TCA). Using the seven absorbance measurements [time zero, (Tz), control growth, (C), and test growth in the presence of drug at the five concentration levels (Ti)], the percentage growth is calculated at each of the drug concentrations levels. […]

Another experiment concerns NCI-H322M. The experiment is described as follows: NCI-60 cell line screen (SRB), NCI-H322M. As to the method:
as §1

The next experiment concerns SW-620. The experiment is described as follows: NCI-60 cell line screen (SRB), SW-620. The procedure:
as §1

The subject of a further experiment is M14. The experiment is described as follows: NCI-60 cell line screen (SRB), M14. The procedure: as §1
The next experiment concerns K-562. The experiment is described as follows: NCI-60 cell line screen (SRB), K-562. As to the method:
as §1

In a further experiment the test system is MCF-7. The experiment is described as follows: NCI-60 cell line screen (SRB), MCF-7. As to the method: as §1
In a further experiment the test system is SK-OV-3. As to the kind of experiment: NCI-60 cell line screen (SRB), SK-OV-3. The procedure: as §1
The test system of the next experiment is MDA-MB-435. The experiment is described as follows: NCI-60 cell line screen (SRB), MDA-MB-435. As to the method: as §1
The test system of a further experiment is IGROV1. The experiment is described as follows: NCI-60 cell line screen (SRB), IGROV1. As to the method:
as §1

The test system of the next experiment is OVCAR-8. As to the kind of experiment: NCI-60 cell line screen (SRB), OVCAR-8. As to the method: as §1
A further experiment has as its system NCI-H522. As to the kind of experiment: NCI-60 cell line screen (SRB), NCI-H522. The procedure: as §1
A further experiment deals with OVCAR-5. As to the kind of experiment: NCI-60 cell line screen (SRB), OVCAR-5. As to the method: as §1
Experiment [1] has as its system Ovarian Cancer cell lines. The experiment is described as follows: NCI-60 cell line screen, Ovarian Cancer panel average. Conditions: read-out: GI50 Average. The procedure:
as §1

The subject of a further experiment is MDA-MB-231/ATCC. As to the kind of experiment: NCI-60 cell line screen (SRB), MDA-MB-231/ATCC. As to the method: as §1
The next experiment has as its system TK-10. The experiment is described as follows: NCI-60 cell line screen (SRB), TK-10. The procedure: as §1
A further experiment deals with MALME-3M. The experiment is described as follows: NCI-60 cell line screen (SRB), MALME-3M. The procedure:
as §1

The test system of another experiment is DU145. The experiment is described as follows: NCI-60 cell line screen (SRB), DU145. The procedure:
as §1

Another experiment relates to A549/ATCC. The experiment is described as follows: NCI-60 cell line screen (SRB), A549/ATCC. As to the method: as §1

Molecules are shown by their SMILES. Read-outs that look alike come from different tables or passages of the source.

One may read the GI50 as the concentration giving 50% growth inhibition. As for `CC1(C)CC(NC(=O)[C@H](Cc2ccc(OCc3c(Cl)cccc3Cl)cc2)NC(=O)c2ccc(OCCC[Si](C)(C)C)cc2)CC(C)(C)N1` [GH1501, N^α-{4-[3-(trimethylsilyl)propoxy]-benzoyl}-N-(2,2,6,6-tetramethylpiperidin-4-yl)-[O-(2,6-dichlorobenzyl)-L-tyrosinamide]], the GI50 with SN12C (Homo sapiens, 48 h) came to 564 nM; in the experiment with NCI-H322M (Homo sapiens, 48 h), 1740 nM; in the experiment with SW-620 (Homo sapiens, SW-620, 48 h), 313 nM; with M14 (Homo sapiens, M14, 48 h), 341 nM; in the experiment with K-562 (Homo sapiens, K562, 48 h), 322 nM; with MCF-7 (Homo sapiens, MCF7, 48 h) it was 335 nM. For the same compound, the GI50 in the experiment on SK-OV-3 (Homo sapiens, SK-OV-3, 48 h) was 2080 nM; in the experiment on MDA-MB-435 (Homo sapiens, MDA-MB-435, 48 h) it was 269 nM; with IGROV1 (Homo sapiens, IGROV-1, 48 h), 1200 nM; in the experiment on OVCAR-8 (Homo sapiens, OVCAR-8, 48 h) it was 268 nM; in the experiment with NCI-H522 (Homo sapiens, NCI-H522, 48 h), 1820 nM; in the experiment on OVCAR-5 (Homo sapiens, OVCAR-5, 48 h), 1680 nM. In addition, the GI50 in experiment [1] (Homo sapiens) stood at 1370 nM; with MDA-MB-231/ATCC (Homo sapiens, MDA-MB-231, 48 h) it was 881 nM; with TK-10 (Homo sapiens, TK-10, 48 h) it was 1850 nM; in the experiment on MALME-3M (Homo sapiens, Malme-3M, 48 h), 1460 nM; with DU145 (Homo sapiens, DU-145, 48 h), 347 nM; with A549/ATCC (Homo sapiens, A549, 48 h) it was 407 nM.

For `CCCC[Si](C)(C)COc1ccc(C(=O)N[C@@H](Cc2ccc(-c3ccccc3)cc2)C(=O)NC2CC(C)(C)NC(C)(C)C2)cc1` [GH1504, N^α-{4-[(butyldimethylsilyl)methoxy]-benzoyl}-N-(2,2,6,6-tetramethylpiperidin-4-yl)-(4-phenyl-L-phenylalaninamide)], the GI50 with SN12C (Homo sapiens, 48 h) came out at 526 nM; in the experiment with NCI-H322M (Homo sapiens, 48 h) it was 1710 nM; in the experiment on SW-620 (Homo sapiens, SW-620, 48 h) it was 316 nM; in the experiment on M14 (Homo sapiens, M14, 48 h), 286 nM; with K-562 (Homo sapiens, K562, 48 h) it was 386 nM; with MCF-7 (Homo sapiens, MCF7, 48 h), 332 nM. Also, the concentration for 50% growth inhibition (GI50) with SK-OV-3 (Homo sapiens, SK-OV-3, 48 h) came out at 2120 nM; with MDA-MB-435 (Homo sapiens, MDA-MB-435, 48 h) it was 292 nM; with IGROV1 (Homo sapiens, IGROV-1, 48 h) it was 1640 nM; with OVCAR-8 (Homo sapiens, OVCAR-8, 48 h) it was 216 nM; in the experiment with NCI-H522 (Homo sapiens, NCI-H522, 48 h) it was 1060 nM; with OVCAR-5 (Homo sapiens, OVCAR-5, 48 h) it was 1810 nM. For the same compound, the GI50 came to 1150 nM in experiment [1] (Homo sapiens); 880 nM in the experiment with MDA-MB-231/ATCC (Homo sapiens, MDA-MB-231, 48 h); 1110 nM in the experiment with TK-10 (Homo sapiens, TK-10, 48 h); 1750 nM in the experiment on MALME-3M (Homo sapiens, Malme-3M, 48 h); 368 nM in the experiment with DU145 (Homo sapiens, DU-145, 48 h); 326 nM in the experiment with A549/ATCC (Homo sapiens, A549, 48 h).

Turning to `CCOP(=O)(OCC)C(NC(=O)[C@H](Cc1ccc(-c2ccccc2)cc1)NC(=O)c1ccc(OCCC[Si](C)(C)C)cc1)P(=O)(OCC)OCC` [GH1505, N^α-{4-[3-(trimethylsilyl)propoxy]-benzoyl}-N-[bis(dietoxyphosphoryl)methyl]-(4-phenyl-L-phenylalaninamide)], the GI50 was 1710 nM in the experiment with SN12C (Renal Cancer, 48 h drug incubation, read-out: GI50); 5110 nM in the experiment on NCI-H322M (Non-Small Cell Lung Cancer, 48 h drug incubation, read-out: GI50); 2190 nM with SW-620 (Colon Cancer, SW-620, 48 h drug incubation, read-out: GI50); 2100 nM with M14 (Melanoma, M14, 48 h drug incubation, read-out: GI50); 3460 nM with K-562 (Leukemia, K-562, 48 h drug incubation, read-out: GI50); 1880 nM with MCF-7 (Breast Cancer, MCF-7, 48 h drug incubation, read-out: GI50). In addition, the GI50 with SK-OV-3 (Ovarian Cancer, SK-OV-3, 48 h drug incubation, read-out: GI50) is 2590 nM; in the experiment on MDA-MB-435 (Melanoma, MDA-MB-435, 48 h drug incubation, read-out: GI50), 1900 nM; in the experiment with IGROV1 (Ovarian Cancer, IGROV1, 48 h drug incubation, read-out: GI50) it was 3220 nM; with OVCAR-8 (Ovarian Cancer, OVCAR-8, 48 h drug incubation, read-out: GI50) it was 2960 nM; in the experiment with NCI-H522 (Non-Small Cell Lung Cancer, NCI-H522, 48 h drug incubation, read-out: GI50) it was 2020 nM; in the experiment with OVCAR-5 (Ovarian Cancer, OVCAR-5, 48 h drug incubation, read-out: GI50), 1710 nM. Also, the GI50 in experiment [1] (average over Ovarian Cancer panel) came to 2600 nM; in the experiment with MDA-MB-231/ATCC (Breast Cancer, MDA-MB-231/ATCC, 48 h drug incubation, read-out: GI50) it was 1620 nM; with TK-10 (Renal Cancer, TK-10, 48 h drug incubation, read-out: GI50), 2500 nM; in the experiment on MALME-3M (Melanoma, MALME-3M, 48 h drug incubation, read-out: GI50), 1930 nM; in the experiment on DU145 (Prostate Cancer, DU145, 48 h drug incubation, read-out: GI50), 1930 nM; in the experiment with A549/ATCC (Non-Small Cell Lung Cancer, A549/ATCC, 48 h drug incubation, read-out: GI50), 2840 nM.
